{"source": "patent US4606857A", "about": "“Muramyldipeptide derivatives” (priority 1982, dated 1986)", "key": {"[1]": {"system": "delayed-type hypersensitivity to N-acetyltyrosine-3-azobenzene-4'-arsonic acid (ABA-N-Ac-Tyr)", "assay": "Adjuvant activity: enhancement of induction of delayed-type hypersensitivity (skin reaction)", "assay_type": "in vivo", "settings": "guinea pig, 100 μg/animal compound with 50 μg ABA-N-Ac-Tyr in FIA into soles, 100 μg ABA-BSA intradermal two weeks later, mean ± SE; for Skin Reaction 24 Hours (diameter of erythema and induration): read 24 hours after injection; for Skin Reaction 48 Hours (diameter of erythema and induration): read 48 hours after injection", "method": "The adjuvant activity was confirmed by the enhancing activity on the induction of delayed-type hypersensitivity to N-acetyltyrosine-3-azobenzene-4'-arsonic acid (hereinafter referred to as ABA-N-Ac-Tyr) in guinea pig.\nThat is, a water-in-oil emulsion prepared by mixing 50 μg/animal of ABA-N-Ac-Tyr and 100 μg/animal of each of the compounds of the present invention with Freund's incomplete adjuvant (hereinafter referred to as FIA) was administered to the soles of guinea pigs. Two weeks later, 100 μg of 3-azobenzene-4'-arsonic acid bonded to bovine serum albumin (hereinafter referred to as ABA-BSA) was intradermally injected and the diameter of skin reaction (i.e., erythema and induration) was measured 24 hours and 48 hours after the injection. The diameter of the skin reaction is considered a measure of cellular immunity."}, "[2]": {"system": "E. coli E77156", "assay": "Prophylactic effect against microbial infection in mice", "assay_type": "in vivo", "settings": "STD-ddy male mice, 100 μg/mouse s.c. 24 hours before s.c. challenge", "method": "(2) Prophylactic Effect Against Microbial Infection\nAnimals: Groups of 20 STD-ddy male mice, 5 weeks of age, were used.\nBacteria: E. coli E77156 which has been maintained in a freezed-culture was used.\nAgents: Compounds of the present invention were dissolved or suspended in Dulbecco phosphate-buffered saline (PBS: pH 7.4) at a concentration of 500 μg/ml just before use.\nTreatment and Infection: The animals were treated subcutaneously with 0.2 ml of each of the above solution or suspension (equivalent to 100 μg/mouse), followed by the subcutaneous challenge with E. coli 24 hours later.\nThe effect was judged from the percent survival of the mice seven days after the infection."}, "[3]": {"settings": "inoculum 4.4 × 10^6 cells/mouse"}, "[4]": {"settings": "inoculum 6.17 × 10^6 cells/mouse"}}}
{"molecule": "COC(=O)CC[C@@H](NC(=O)[C@H](C)NC(=O)[C@@H](C)O[C@H]1[C@H](O)[C@@H](CO)O[C@@H](SC(C)=O)[C@@H]1NC(C)=O)C(N)=O", "note": "[Compound 2, 2-Acetamido-1-S-acetyl-2-deoxy-3-O-(D-2-propanoyl-L-alanyl-D-isoglutaminemethyl ester)-1-thio-β-D-glucopyranose]", "values": [{"measurement": "Skin Reaction 24 Hours (diameter of erythema and induration)", "setting": "[1]", "result": "21.0 ± 1.0", "unit": "mm"}, {"measurement": "Skin Reaction 48 Hours (diameter of erythema and induration)", "setting": "[1]", "result": "21.0 ± 0.7", "unit": "mm"}]}
{"molecule": "COC(=O)CC[C@@H](NC(=O)[C@H](C)NC(=O)[C@@H](C)O[C@H]1[C@H](O)[C@@H](CO)O[C@@H](S)[C@@H]1NC(C)=O)C(N)=O", "note": "[Compound 3, 2-Acetamido-2-deoxy-3-O-(D-2-propanoyl-L-alanyl-D-isoglutaminemethyl ester)-1-thio-β-D-glucopyranose]", "values": [{"measurement": "Skin Reaction 24 Hours (diameter of erythema and induration)", "setting": "[1]", "result": "22.1 ± 0.9", "unit": "mm"}, {"measurement": "Skin Reaction 48 Hours (diameter of erythema and induration)", "setting": "[1]", "result": "20.9 ± 0.7", "unit": "mm"}]}
{"molecule": "CC(=O)NC1C(S)OC(CO)C(O)C1OC(C)C(=O)NC(C)C(=O)NC(CCC(=O)O)C(N)=O", "note": "[Compound 4, 2-acetamido-2-deoxy-3-O-(D-2-propanoyl-L-alanyl-D-isoglutamine)-1-thio-β-D-glucopyranose]", "values": [{"measurement": "Skin Reaction 24 Hours (diameter of erythema and induration)", "setting": "[1]", "result": "23.1 ± 1.2", "unit": "mm"}, {"measurement": "Skin Reaction 48 Hours (diameter of erythema and induration)", "setting": "[1]", "result": "21.0 ± 1.3", "unit": "mm"}, {"measurement": "% Survival 7 days after Infection", "setting": "[2]; [3]", "result": 55, "unit": "%"}]}
{"molecule": "CCCCS[C@@H]1O[C@H](CO)[C@@H](O)[C@H](O[C@H](C)C(=O)N[C@@H](C)C(=O)N[C@H](CCC(=O)OC)C(N)=O)[C@H]1NC(C)=O", "note": "[Compound 8, 1-S-n-Butyl 2-acetamido-2-deoxy-3-O-(D-2-propanoyl-L-alanyl-D-isoglutaminemethyl ester)-1-thio-β-D-glucopyranoside]", "values": [{"measurement": "Skin Reaction 24 Hours (diameter of erythema and induration)", "setting": "[1]", "result": "14.5 ± 0.7", "unit": "mm"}, {"measurement": "Skin Reaction 48 Hours (diameter of erythema and induration)", "setting": "[1]", "result": "10.3 ± 1.0", "unit": "mm"}]}
{"molecule": "CCCCCCCCCCCCCCCCSC1OC(CO)C(O)C(OC(C)C(=O)NC(C)C(=O)NC(CCC(=O)OC)C(N)=O)C1NC(C)=O", "note": "[Compound 9, 1-S-Hexadecanyl 2-acetamido-2-deoxy-3-O-(D-2-propanoyl-L-alanyl-D-isoglutaminemethyl ester)-1-thio-β-D-glucopyranoside]", "values": [{"measurement": "Skin Reaction 24 Hours (diameter of erythema and induration)", "setting": "[1]", "result": "13.5 ± 0.8", "unit": "mm"}, {"measurement": "Skin Reaction 48 Hours (diameter of erythema and induration)", "setting": "[1]", "result": "12.4 ± 0.7", "unit": "mm"}]}
{"molecule": "CCCCSC1OC(CO)C(O)C(OC(C)C(=O)NC(C)C(=O)NC(CCC(=O)O)C(N)=O)C1NC(C)=O", "note": "[Compound 10, 1-S-n-Butyl 2-acetamido-2-deoxy-3-O-(D-2-propanoyl-L-alanyl-D-isoglutamine)-1-thio-β-D-glucopyranoside]", "values": [{"measurement": "Skin Reaction 24 Hours (diameter of erythema and induration)", "setting": "[1]", "result": "17.4 ± 1.7", "unit": "mm"}, {"measurement": "Skin Reaction 48 Hours (diameter of erythema and induration)", "setting": "[1]", "result": "13.6 ± 1.8", "unit": "mm"}]}
{"molecule": "CCCCCCCCCCCCCCCCSC1OC(CO)C(O)C(OC(C)C(=O)NC(C)C(=O)NC(CCC(=O)O)C(N)=O)C1NC(C)=O", "note": "[Compound 11, 1-S-Hexadecanyl 2-acetamido-2-deoxy-3-O-(D-2-propanoyl-L-alanyl-D-isoglutamine)-1-thio-β-D-glucopyranoside]", "values": [{"measurement": "Skin Reaction 24 Hours (diameter of erythema and induration)", "setting": "[1]", "result": "15.6 ± 1.9", "unit": "mm"}, {"measurement": "Skin Reaction 48 Hours (diameter of erythema and induration)", "setting": "[1]", "result": "11.6 ± 1.4", "unit": "mm"}]}
{"molecule": "CCCCCCCCCCCCCCCC(=O)S[C@@H]1O[C@H](CO)[C@@H](O)[C@H](O[C@H](C)C(=O)N[C@@H](C)C(=O)N[C@H](CCC(=O)OC)C(N)=O)[C@H]1NC(C)=O", "note": "[Compound 14, 2-Acetamido-2-deoxy-1-S-hexadecanoyl-3-O-(D-2-propanoyl-L-alanyl-D-isoglutaminemethyl ester)-1-thio-β-D-glucopyranose]", "values": [{"measurement": "Skin Reaction 24 Hours (diameter of erythema and induration)", "setting": "[1]", "result": "20.4 ± 0.7", "unit": "mm"}, {"measurement": "Skin Reaction 48 Hours (diameter of erythema and induration)", "setting": "[1]", "result": "21.0 ± 1.4", "unit": "mm"}, {"measurement": "% Survival 7 days after Infection", "setting": "[2]; [3]", "result": 80, "unit": "%"}]}
{"molecule": "CC(=O)NC1C(S)OC2COC(C)(C)OC2C1OC(C)C(=O)NC(C)C(=O)NC(CCC(=O)O)C(N)=O", "note": "[Compound 15, 2-Acetamido-2-deoxy-4,6-O-isopropylidene-3-O-(D-2-propanoyl-L-alanyl-D-isoglutamine)-1-thio-β-D-glucopyranose]", "values": [{"measurement": "Skin Reaction 24 Hours (diameter of erythema and induration)", "setting": "[1]", "result": "16.9 ± 0.8", "unit": "mm"}, {"measurement": "Skin Reaction 48 Hours (diameter of erythema and induration)", "setting": "[1]", "result": "14.0 ± 1.0", "unit": "mm"}]}
{"molecule": "CCCCCCCCCCCCCCCC(=O)SC1OC2COC(C)(C)OC2C(OC(C)C(=O)NC(C)C(=O)NC(CCC(=O)O)C(N)=O)C1NC(C)=O", "note": "[Compound 16, 2-Acetamido-2-deoxy-1-S-hexadecanoyl-4,6-O-isopropylidene-3-O-(D-2-propanoyl-L-alanyl-D-isoglutamine)-1-thio-β-D-glucopyranose]", "values": [{"measurement": "Skin Reaction 24 Hours (diameter of erythema and induration)", "setting": "[1]", "result": "11.3 ± 0.8", "unit": "mm"}, {"measurement": "Skin Reaction 48 Hours (diameter of erythema and induration)", "setting": "[1]", "result": "5.6 ± 1.4", "unit": "mm"}]}
{"molecule": "CCCCCCCCCCCCCCCC(=O)S[C@@H]1O[C@H](CO)[C@@H](O)[C@H](O[C@H](C)C(=O)N[C@@H](C)C(=O)N[C@H](CCC(=O)O)C(N)=O)[C@H]1NC(C)=O", "note": "[Compound 17, 2-Acetamido-2-deoxy-1-S-hexadecanoyl-3-O-(D-2-propanoyl-L-alanyl-D-isoglutamine)-1-thio-β-D-glucopyranose]", "values": [{"measurement": "Skin Reaction 24 Hours (diameter of erythema and induration)", "setting": "[1]", "result": "21.8 ± 0.8", "unit": "mm"}, {"measurement": "Skin Reaction 48 Hours (diameter of erythema and induration)", "setting": "[1]", "result": "23.1 ± 1.1", "unit": "mm"}, {"measurement": "% Survival 7 days after Infection", "setting": "[2]; [3]", "result": 60, "unit": "%"}]}
{"molecule": "CCCCCCCCCC(=O)S[C@@H]1O[C@H](CO)[C@@H](O)[C@H](O[C@H](C)C(=O)N[C@@H](C)C(=O)N[C@H](CCC(=O)OC)C(N)=O)[C@H]1NC(C)=O", "note": "[Compound 18, 2-Acetamido-2-deoxy-1-S-decanoyl-3-O-(D-2-propanoyl-L-alanyl-D-isoglutaminemethyl ester)-1-thio-β-D-glucopyranose]", "values": [{"measurement": "% Survival 7 days after Infection", "setting": "[2]; [4]", "result": 90, "unit": "%"}]}
{"molecule": "CCCCCCCCCCCCCCCCCC(=O)S[C@@H]1O[C@H](CO)[C@@H](O)[C@H](O[C@H](C)C(=O)N[C@@H](C)C(=O)N[C@H](CCC(=O)OC)C(N)=O)[C@H]1NC(C)=O", "note": "[Compound 19, 2-Acetamido-2-deoxy-1-S-octadecanoyl-3-O-(D-2-propanoyl-L-alanyl-D-isoglutaminemethyl ester)-1-thio-β-D-glucopyranose]", "values": [{"measurement": "% Survival 7 days after Infection", "setting": "[2]; [4]", "result": 70, "unit": "%"}]}
{"molecule": "CCCC(=O)S[C@@H]1O[C@H](CO)[C@@H](O)[C@H](O[C@H](C)C(=O)N[C@@H](C)C(=O)N[C@H](CCC(=O)OC)C(N)=O)[C@H]1NC(C)=O", "note": "[Compound 21, 2-Acetamido-2-deoxy-1-S-n-butanoyl-3-O-(D-2-propanoyl-L-alanyl-D-isoglutaminemethyl ester)-1-thio-β-D-glucopyranose]", "values": [{"measurement": "% Survival 7 days after Infection", "setting": "[2]; [4]", "result": 50, "unit": "%"}]}
{"molecule": "CCCCCCCCCCCC(=O)S[C@@H]1O[C@H](CO)[C@@H](O)[C@H](O[C@H](C)C(=O)N[C@@H](C)C(=O)N[C@H](CCC(=O)O)C(N)=O)[C@H]1NC(C)=O", "note": "[Compound 22, 2-Acetamido-2-deoxy-1-S-dodecanoyl-3-O-(D-2-propanoyl-L-alanyl-D-isoglutamine)-1-thio-β-D-glucopyranose]", "values": [{"measurement": "% Survival 7 days after Infection", "setting": "[2]; [4]", "result": 55, "unit": "%"}]}
{"molecule": "CCCCCCCCCCCCCC(=O)SC1OC(CO)C(O)C(OC(C)C(=O)NC(C)C(=O)NC(CCC(=O)O)C(N)=O)C1NC(C)=O", "note": "[Compound 23, 2-Acetamido-2-deoxy-1-S-tetradecanoyl-3-O-(D-2-propanoyl-L-alanyl-D-isoglutamine)-1-thio-β-D-glucopyranose]", "values": [{"measurement": "% Survival 7 days after Infection", "setting": "[2]; [4]", "result": 60, "unit": "%"}]}
{"molecule": "CCCCCCCCCCCCCC(=O)S[C@@H]1O[C@H](CO)[C@@H](O)[C@H](O[C@H](C)C(=O)N[C@@H](C)C(=O)N[C@H](CCC(=O)OC)C(N)=O)[C@H]1NC(C)=O", "note": "[Compound 24, 2-Acetamido-2-deoxy-1-S-tetradecanoyl-3-O-(D-2-propanoyl-L-alanyl-D-isoglutaminemethyl ester)-1-thio-β-D-glucopyranose]", "values": [{"measurement": "% Survival 7 days after Infection", "setting": "[2]; [4]", "result": 65, "unit": "%"}]}
{"molecule": "CCCCCCCCCCCCCCCCCCCC(=O)S[C@@H]1O[C@H](CO)[C@@H](O)[C@H](O[C@H](C)C(=O)N[C@@H](C)C(=O)N[C@H](CCC(=O)O)C(N)=O)[C@H]1NC(C)=O", "note": "[Compound 25, 2-Acetamido-2-deoxy-1-S-eicosanoyl-3-O-(D-2-propanoyl-L-alanyl-D-isoglutamine)-1-thio-β-D-glucopyranose]", "values": [{"measurement": "% Survival 7 days after Infection", "setting": "[2]; inoculum 6.88 × 10^6 cells/mouse", "result": 55, "unit": "%"}]}
